Values quoted from earlier work as cited in patent publication US20250268979A1, “COMBINATION OF MACROCYCLIC CFTR MODULATORS WITH CFTR CORRECTORS AND / OR CFTR POTENTIATORS” (Idorsia Pharmaceuticals Ltd, priority 2022, published 2025).
Read-outs that look alike come from different tables or passages of the source. Values belong to the compound of their own block, whether it stands above or below them.

Tests used:
[1] = system: F508del-CFTR homozygous patients; settings: Keating, 2018
[2] = system: CF patients carrying class III, IV CFTR mutations on one allele
[3] = system: patients homozygous for the F508del-CFTR mutation; settings: 450 mg b.i.d.
healthy volunteers = settings: up to 1000 mg following SAD and up to 750 mg b.i.d. following MAD
[4] = system: patients with moderate to severe COPD and symptoms of chronic bronchitis; settings: 300 mg b.i.d., 4 weeks
[5] = system: CF patients with ivacaftor-responsive CFTR mutations; settings: for mean ctrough plasma concentration: 4 weeks of treatment; for absolute change from baseline in sweat chloride compared to ivacaftor 150 mg b.i.d. / ppFEV1 treatment difference versus ivacaftor 150 mg b.i.d.: 12 weeks
F508del-CFTR [6] = molecular target: T1, F508del-CFTR (Homo sapiens, UniProt P13569, DEL508-508)
T1 construct: from tissue; host or cells: reconstituted bronchial epithelium from CF patients
T1 sequence (P13569 with tags, fused parts or gaps DEL508-508): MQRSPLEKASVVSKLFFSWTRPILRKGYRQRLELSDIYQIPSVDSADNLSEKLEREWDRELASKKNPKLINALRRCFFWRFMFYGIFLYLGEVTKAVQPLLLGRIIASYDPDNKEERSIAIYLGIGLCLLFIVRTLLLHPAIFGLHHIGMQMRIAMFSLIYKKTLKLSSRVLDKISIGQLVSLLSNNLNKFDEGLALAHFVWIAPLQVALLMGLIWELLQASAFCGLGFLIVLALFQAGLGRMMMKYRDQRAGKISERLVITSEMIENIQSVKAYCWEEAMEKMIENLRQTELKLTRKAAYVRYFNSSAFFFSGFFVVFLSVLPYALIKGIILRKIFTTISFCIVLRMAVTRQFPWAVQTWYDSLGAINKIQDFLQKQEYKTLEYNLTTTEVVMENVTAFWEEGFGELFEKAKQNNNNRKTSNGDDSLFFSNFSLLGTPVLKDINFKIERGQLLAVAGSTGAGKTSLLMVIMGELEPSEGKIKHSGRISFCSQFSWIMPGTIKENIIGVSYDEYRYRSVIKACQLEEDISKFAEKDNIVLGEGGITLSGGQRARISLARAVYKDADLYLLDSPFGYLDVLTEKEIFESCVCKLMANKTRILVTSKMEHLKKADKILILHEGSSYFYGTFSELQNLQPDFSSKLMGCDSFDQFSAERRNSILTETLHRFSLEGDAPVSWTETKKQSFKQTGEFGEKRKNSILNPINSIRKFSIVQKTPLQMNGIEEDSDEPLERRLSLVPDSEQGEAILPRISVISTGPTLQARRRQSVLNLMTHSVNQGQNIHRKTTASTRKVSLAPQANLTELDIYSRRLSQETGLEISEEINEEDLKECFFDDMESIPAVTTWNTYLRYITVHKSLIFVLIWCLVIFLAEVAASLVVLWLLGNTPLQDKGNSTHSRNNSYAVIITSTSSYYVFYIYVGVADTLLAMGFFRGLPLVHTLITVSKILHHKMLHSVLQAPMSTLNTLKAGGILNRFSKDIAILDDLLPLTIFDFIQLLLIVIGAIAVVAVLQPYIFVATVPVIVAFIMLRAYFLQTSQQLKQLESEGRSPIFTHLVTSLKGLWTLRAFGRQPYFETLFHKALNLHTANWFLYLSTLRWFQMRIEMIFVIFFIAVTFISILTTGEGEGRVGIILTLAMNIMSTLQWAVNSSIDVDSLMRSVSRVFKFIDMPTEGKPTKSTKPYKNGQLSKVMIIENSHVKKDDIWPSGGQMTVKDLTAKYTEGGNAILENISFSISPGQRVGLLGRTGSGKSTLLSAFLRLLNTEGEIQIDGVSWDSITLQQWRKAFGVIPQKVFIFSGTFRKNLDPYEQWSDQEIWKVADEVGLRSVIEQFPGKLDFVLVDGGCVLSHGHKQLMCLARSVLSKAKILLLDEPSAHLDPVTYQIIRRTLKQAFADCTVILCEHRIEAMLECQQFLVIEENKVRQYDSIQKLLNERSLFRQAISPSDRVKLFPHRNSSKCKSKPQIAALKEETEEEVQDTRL

[7] = system: CF patients homozygous for the F508del-CFTR mutation
F508del-CFTR [8] = molecular target: T1, F508del-CFTR; settings: homozygous F508del-CFTR doners; in the presence of potentiator GLPG1837
[9] = system: CF patients carrying at least one F508del-CFTR allele
[10] = 14 days, PTI-801 600 mg triple combination
[11] = patients predisposed to rapid pulmonary decline, combo regimen with 600 mg PTI-801

- EC50 (F508del-CFTR [8]): 5 nM
- galicaftor exposure in the presence of two different doses of navocaftor (healthy subjects; in vivo): similar
SMILES: O=C(O)c1ccc([C@H]2C[C@@H](NC(=O)C3(c4ccc5c(c4)OC(F)(F)O5)CC3)c3ccc(OC(F)F)cc3O2)cc1 [galicaftor, 4-[(2R,4R)-4-({[1-(2,2-Difluoro-1,3-benzodioxol-5-yl)cyclopropyl]carbonyl}amino)-7-(difluoromethoxy)-3,4-dihydro-2H-chromen-2-yl]benzoic Acid]
- change in sweat chloride versus placebo ([7]; 200 mg dose group, day 29): -15.8 mM
- tolerability and safety ([7]; 4 weeks, once-daily 50, 100, 200 and 400 mg): well tolerated and safe
- change from baseline in CFQ-R score versus placebo ([7]; day 29): No significant changes versus placebo
- change from baseline in ppFEV1 versus placebo ([7]; day 29): No significant changes versus placebo

- navocaftor exposure in the presence of galicaftor (healthy subjects; in vivo): not apparently altered
SMILES: Nc1cc(S(=O)(=O)c2ccc(OC(F)(F)F)cc2)cnc1-c1nnc(CO)o1 [navocaftor, (5-(3-Amino-5-((4-(trifluoromethoxy)phenyl)sulfonyl)pyridin-2-yl)-1,3,4-oxadiazol-2-yl) methanol]
- tolerability (healthy subjects; up to 1000 mg single dose and up to 500 mg b.i.d. for 14 days): generally well tolerated

More lines, now with the values behind:

SMILES: Cc1nn(C)cc1S(=O)(=O)NC(=O)c1ccc(-n2ccc(OCC(C)(C)C(F)(F)F)n2)nc1N1C[C@@H](C)CC1(C)C [elexacaftor, N-(1,3-dimethyl-1H-pyrazole-4-sulfonyl)-6-[3-(3,3,3-trifluoro-2,2-dimethylpropoxy)-1H-pyrazol-1-yl]-2-[(4S)-2,2,4-trimethylpyrrolidin-1-yl]pyridine-3-carboxamide]
- ppFEV1 increase on adding to basal treatment of tezacaftor+ivacaftor (SYMDEKO) [1]: 10%

SMILES: COc1nc(C(=O)NC[C@](C)(O)C(F)(F)F)c(N)cc1C(F)(F)F [icenticaftor, 3-Amino-6-methoxy-N-[(2S)-3,3,3-trifluoro-2-hydroxy-2-methylpropyl]-5-(trifluoromethyl)pyridine-2-carboxamide]
- LCI2.5 compared to placebo ([2]; 450 mg b.i.d., 14 days): −1.13
- ppFEV1 increase versus placebo ([2]; 450 mg b.i.d., 14 days): 6.5%
- sweat chloride concentration versus placebo ([2]; 450 mg b.i.d., 14 days): -8.4 mM
- tolerability in CF patients ([2]; 150 and 450 mg b.i.d., across all patient sub-groups): well tolerated
- sweat chloride and lung function [3]: no reduction in sweat chloride or improvement in lung function
- tolerability (healthy volunteers): well tolerated
- LCI2.5 compared to placebo [4]: did not change
- sweat chloride compared to placebo ([4]; average baseline 23 mM): -5.04 mM
- FEV1 compared to placebo ([4]; average baseline 1.4-1.5 L): 0.05 to 0.06 L
- plasma fibrinogen compared to placebo ([4]; average baseline 3.2 g/L): -0.39 g/L

SMILES: CC(C)(C)c1cc(C(C)(C)C)c(NC(=O)c2c[nH]c3ccccc3c2=O)cc1O [ivacaftor, N-(2,4-di-tert-butyl-5-hydroxyphenyl)-1,4-dihydro-4-oxoquinoline-3-carboxamide]
- mean ctrough plasma concentration ([5]; 150 mg b.i.d.): 952 ng/mL
- further augmentation of function on addition to tezacaftor and elexacaftor (F508del-CFTR [6]; Keating, 2018): 2 fold
- augmentation of CFTR function on addition to lumacaftor-corrected F508del-CFTR (F508del-CFTR [6]; van Goor, 2011): almost two-fold

SMILES: [2H]C([2H])([2H])C(c1cc(C(C)(C)C)c(NC(=O)c2c[nH]c3ccccc3c2=O)cc1O)(C([2H])([2H])[2H])C([2H])([2H])[2H] [deutivacaftor, N-[2-tert-butyl-4-[1,1,1,3,3,3-hexadeuterio-2-(trideuteriomethyl)propan-2-yl]-5-hydroxyphenyl]-4-oxo-1H-quinoline-3-carboxamide]
- mean ctrough plasma concentration ([5]; 150 mg once daily): 458 ng/mL
- absolute change from baseline in sweat chloride compared to ivacaftor 150 mg b.i.d. ([5]; 150 mg once daily): +2.4 mM
- ppFEV1 treatment difference versus ivacaftor 150 mg b.i.d. ([5]; 150 mg once daily): +3.9%
- mean ctrough plasma concentration ([5]; 250 mg once daily): 1100 ng/mL
- absolute change from baseline in sweat chloride compared to ivacaftor 150 mg b.i.d. ([5]; 250 mg once daily): -7.4 mM
- ppFEV1 treatment difference versus ivacaftor 150 mg b.i.d. ([5]; 250 mg once daily): +3.5%

SMILES: Cc1c(-c2cc(C(=O)O)c3c(O[C@H](C)C4CCOCC4)ccc(C)c3n2)oc2ccccc12 [PTI-801]
- decrease in sweat chloride compared with before treatment [9, 10]: 19 mM
- decrease in sweat chloride compared with placebo [9, 10]: 24 mM
- increase in mean absolute ppFEV1 compared with before the treatment ([9]; 14 days, PTI-801 600 mg with PTI-808 150 mg and PTI-428 30 mg): 5%
- improvement in ppFEV1 compared with before treatment [9, 11]: 6%
- improvement in ppFEV1 compared with placebo [9, 11]: 8%
